Assay results: patent US9061013B2, “Isoxazoline derivatives as antiparasitic agents” (Zoetis LLC, priority 2011, dated 2015)

System: Aedes aegypti
Assay: Mosquito (Aedes aegypti) Larval Assay
Details: mosquito larvae in DMSO/water solution, death or paralysis following 24 hour incubation at 22° C., read-out: Minimum Efficacious Dose (MED)
Description: Mosquito (Aedes aegypti) Larval Assay
Formula (1) compounds were dissolved in DMSO and water. Five instar mosquito larvae were added to the solution and observed for death or paralysis following a 24 hour incubation period at 22° C. Endpoint data was recorded as Minimum Efficacious Dose (MED) in μM.

O=C(NCC(F)(F)F)C1CC(O)(c2ccc(C3=NOC(c4cc(Cl)c(Cl)c(Cl)c4)(C(F)(F)F)C3)cc2)C1 (centres unmarked) [Example 1, 3-hydroxy-3-{4-[5-(3,4,5-trichloro-phenyl)-5-trifluoromethyl-4,5-dihydro-isoxazol-3-yl]-phenyl}-cyclobutanecarboxylic acid (2,2,2-trifluoro-ethyl)-amide]
minimal effective concentration: ≤ 100 µM

O=C(NC1CC1)C1CC(O)(c2ccc(C3=NOC(c4cc(Cl)c(Cl)c(Cl)c4)(C(F)(F)F)C3)cc2)C1 (centres unmarked) [Example 2, 3-hydroxy-3-{4-[5-(3,4,5-trichloro-phenyl)-5-trifluoromethyl-4,5-dihydro-isoxazol-3-yl]-phenyl}-cyclobutanecarboxylic acid cyclopropylamide]
minimal effective concentration: ≤ 100 µM

CNC(=O)C1CC(O)(c2ccc(C3=NOC(c4cc(Cl)c(Cl)c(Cl)c4)(C(F)(F)F)C3)cc2)C1 (centres unmarked) [Example 3, 3-hydroxy-3-{4-[5-(3,4,5-trichloro-phenyl)-5-trifluoromethyl-4,5-dihydro-isoxazol-3-yl]-phenyl}-cyclobutanecarboxylic acid methylamide]
minimal effective concentration: ≤ 100 µM

CN(C)C(=O)C1CC(O)(c2ccc(C3=NOC(c4cc(Cl)c(Cl)c(Cl)c4)(C(F)(F)F)C3)cc2)C1 (centres unmarked) [Example 4, 3-hydroxy-3-{4-[5-(3,4,5-trichloro-phenyl)-5-trifluoromethyl-4,5-dihydro-isoxazol-3-yl]-phenyl}-cyclobutanecarboxylic acid dimethylamide]
minimal effective concentration: ≤ 100 µM

O=C(NCC(F)(F)F)C1CC(F)(c2ccc(C3=NOC(c4cc(Cl)c(Cl)c(Cl)c4)(C(F)(F)F)C3)cc2)C1 (centres unmarked) [Example 7, 3-fluoro-3-{4-[5-(3,4,5-trichloro-phenyl)-5-trifluoromethyl-4,5-dihydro-isoxazol-3-yl]-phenyl}-cyclobutanecarboxylic acid (2,2,2-trifluoro-ethyl)-amide]
minimal effective concentration: ≤ 100 µM

CNC(=O)C1CC(F)(c2ccc(C3=NOC(c4cc(Cl)c(Cl)c(Cl)c4)(C(F)(F)F)C3)cc2)C1 (centres unmarked) [Example 10, 3-fluoro-3-{4-[5-(3,4,5-trichloro-phenyl)-5-trifluoromethyl-4,5-dihydro-isoxazol-3-yl]-phenyl}-cyclobutanecarboxylic acid methylamide]
minimal effective concentration: ≤ 100 µM

CN(C)C(=O)C1CC(F)(c2ccc(C3=NOC(c4cc(Cl)c(Cl)c(Cl)c4)(C(F)(F)F)C3)cc2)C1 (centres unmarked) [Example 11, 3-fluoro-3-{4-[5-(3,4,5-trichloro-phenyl)-5-trifluoromethyl-4,5-dihydro-isoxazol-3-yl]-phenyl}-cyclobutanecarboxylic acid dimethylamide]
minimal effective concentration: ≤ 100 µM

CC(C)NC(=O)C1CC(F)(c2ccc(C3=NOC(c4cc(Cl)c(Cl)c(Cl)c4)(C(F)(F)F)C3)cc2)C1 (centres unmarked) [Example 13]
minimal effective concentration: ≤ 100 µM

CCNC(=O)C1CC(F)(c2ccc(C3=NOC(c4cc(Cl)c(Cl)c(Cl)c4)(C(F)(F)F)C3)cc2)C1 (centres unmarked) [Example 14, 3-fluoro-3-{4-[5-(3,4,5-trichloro-phenyl)-5-trifluoromethyl-4,5-dihydro-isoxazol-3-yl]-phenyl}-cyclobutanecarboxylic acid ethylamide]
minimal effective concentration: ≤ 100 µM

O=C(CNC(=O)C1CC(F)(c2ccc(C3=NOC(c4cc(Cl)c(Cl)c(Cl)c4)(C(F)(F)F)C3)cc2)C1)NCC(F)(F)F (centres unmarked) [Example 15, 3-fluoro-N-(2-oxo-2-((2,2,2-trifluoroethyl)amino)ethyl)-3-(4-(5-(3,4,5-trichlorophenyl)-5-(trifluoromethyl)-4,5-dihydroisoxazol-3-yl)phenyl)cyclobutanecarboxamide]
minimal effective concentration: ≤ 100 µM

O=C(NC1CC1)C1CN(c2ccc(C3=NOC(c4cc(Cl)c(Cl)c(Cl)c4)(C(F)(F)F)C3)cc2)C1 (centres unmarked) [Example 16, 1-{4-[5-(3,4,5-trichloro-phenyl)-5-trifluoromethyl-4,5-dihydro-isoxazol-3-yl]-phenyl}-azetidine-3-carboxylic acid cyclopropylamide]
minimal effective concentration: ≤ 100 µM

CNC(=O)C1CN(c2ccc(C3=NOC(c4cc(Cl)c(Cl)c(Cl)c4)(C(F)(F)F)C3)cc2)C1 (centres unmarked) [Example 17, 1-{4-[5-(3,4,5-trichloro-phenyl)-5-trifluoromethyl-4,5-dihydro-isoxazol-3-yl]-phenyl}-azetidine-3-carboxylic acid methylamide]
minimal effective concentration: ≤ 100 µM

O=C(NCC(F)(F)F)C1CN(c2ccc(C3=NOC(c4cc(Cl)c(Cl)c(Cl)c4)(C(F)(F)F)C3)cc2)C1 (centres unmarked) [Example 18, 1-{4-[5-(3,4,5-trichloro-phenyl)-5-trifluoromethyl-4,5-dihydro-isoxazol-3-yl]-phenyl}-azetidine-3-carboxylic acid (2,2,2-trifluoro-ethyl)-amide]
minimal effective concentration: ≤ 100 µM

CN(C)C(=O)C1CN(c2ccc(C3=NOC(c4cc(Cl)c(Cl)c(Cl)c4)(C(F)(F)F)C3)cc2)C1 (centres unmarked) [Example 19, 1-{4-[5-(3,4,5-trichloro-phenyl)-5-trifluoromethyl-4,5-dihydro-isoxazol-3-yl]-phenyl}azetidine-3-carboxylic acid dimethylamide]
minimal effective concentration: ≤ 100 µM

CNC(=O)C1CN(c2ccc(C3=NOC(c4cc(Cl)c(Cl)c(Cl)c4)(C(F)(F)F)C3)cc2Cl)C1 (centres unmarked) [Example 20, 1-{2-chloro-4-[5-(3,4,5-trichloro-phenyl)-5-trifluoromethyl-4,5-dihydro-isoxazol-3-yl]-phenyl}-azetidine-3-carboxylic acid methylamide]
minimal effective concentration: ≤ 100 µM

O=C(NCC(F)(F)F)C1CN(c2ccc(C3=NOC(c4cc(Cl)c(Cl)c(Cl)c4)(C(F)(F)F)C3)cc2Cl)C1 (centres unmarked) [Example 21, 1-{2-chloro-4-[5-(3,4,5-trichloro-phenyl)-5-trifluoromethyl-4,5-dihydro-isoxazol-3-yl]-phenyl}-azetidine-3-carboxylic acid (2,2,2-trifluoro-ethyl)-amide]
minimal effective concentration: ≤ 100 µM

O=C(NC1CC1)C1CN(c2ccc(C3=NOC(c4cc(Cl)c(Cl)c(Cl)c4)(C(F)(F)F)C3)cc2Cl)C1 (centres unmarked) [Example 22, 1-{2-chloro-4-[5-(3,4,5-trichloro-phenyl)-5-trifluoromethyl-4,5-dihydro-isoxazol-3-yl]-phenyl}-azetidine-3-carboxylic acid cyclopropylamide]
minimal effective concentration: ≤ 100 µM

CN(C)C(=O)C1CN(c2ccc(C3=NOC(c4cc(Cl)c(Cl)c(Cl)c4)(C(F)(F)F)C3)cc2Cl)C1 (centres unmarked) [Example 23, 1-{2-chloro-4-[5-(3,4,5-trichloro-phenyl)-5-trifluoromethyl-4,5-dihydro-isoxazol-3-yl]-phenyl}-azetidine-3-carboxylic acid dimethylamide]
minimal effective concentration: ≤ 100 µM

O=C(NC1CC(F)(c2ccc(C3=NOC(c4cc(Cl)c(Cl)c(Cl)c4)(C(F)(F)F)C3)cc2)C1)C1CC1 (centres unmarked) [Example 24, N-(3-fluoro-3-(4-(5-(3,4,5-trichlorophenyl)-5-(trifluoromethyl)-4,5-dihydroisoxazol-3-yl)phenyl)cyclobutyl)cyclopropanecarboxamide]
minimal effective concentration: ≤ 100 µM

CS(=O)(=O)CC(=O)NC1CC(F)(c2ccc(C3=NOC(c4cc(Cl)c(Cl)c(Cl)c4)(C(F)(F)F)C3)cc2)C1 (centres unmarked) [Example 25, N-(3-fluoro-3-(4-(5-(3,4,5-trichlorophenyl)-5-(trifluoromethyl)-4,5-dihydroisoxazol-3-yl)phenyl)cyclobutyl)-2-(methylsulfonyl)acetamide]
minimal effective concentration: ≤ 100 µM
